Columns and labels:
B. microti [1] = test: Promoter strength comparison by reporter gene analysis (RLU, luminometer); type: cell-based, Babesia microti; conditions: reporter gene construct, FIG. 5
Protocol: In FIG. 5, the improved strength of the Babesia promoter (here: B. microti or “BM”) compared to a strong constitutive promoter (here: PBANKA DHFR of SEQ ID NO:2) is shown.
The strength of a Babesia-based promoter (for example, without limitation, the BM-CTQ41297 promoter of SEQ ID NO:1) and that of a strong constitutive promoter (here: PBANKA DHFR, SEQ ID NO:2) are determined and compared, representative results are shown in FIG. 5. A promoter (SEQ ID NO:1, from B. microti or “BM”) is compared to PBANKA-DHFR (known to be a strong constitutive promoter), a blank/negative control, and, as a further negative control, human EF1b promoter. The promoter constructs are prepared as described in examples 1 and 4, respectively. Relative Light Units (RLU) are measured by luminometer. […] Similarly the constitutive promoter human EF1b is outperformed by a Babesia-based promoter, including e.g. by the B. microti promoter (as shown in FIG. 5). As determined by reporter gene analysis, the Babesia promoter is at least about 5 to 6 times stronger compared to PBANKA-DHFR (a promoter derived from a rodent malaria parasite Plasmodium berghei with strong constitutive activity commonly used for the expression of reporter genes in various apicomplexan parasites), see results shown in FIG. 5.

B. microti [2] = test: Transient transfection of B. microti with promoter constructs, reporter expression by fluorescence microscopy; type: cell-based, Babesia microti; conditions: two days after transfection, infected RBC from C57BL/6J mice
Protocol: A transfection of parasites with a parasite promoter (here: B. microti & SEQ ID NO:1) is performed as follows. A schematic representation of the genomic location of the B. microti promoter of SEQ ID NO:1 (BM-CTQ41297 promoter) is shown in FIG. 1a. As shown in the figure, the promoter is flanked by the two different genes. The episomal constructs may be based on a standard cloning vector such as Bluescript (pBSK (+)) and modified for expression accordingly; the constructs used are shown schematically in FIG. 1b. As a negative control (B), B. microti parasites transfected with a blank vector without reporter gene insert (but with BM-CTQ41297 promoter and 3′UTR, compare SEQ ID NO: 35). […] Electroporation for both genes is performed as follows. […]
After electroporation, the parasites are immediately injected into C57BL/6J mice and after two days of transfection analyzed by fluorescence microscopy as follows: a drop of blood is collected in a 1.5 ml tube containing heparin from the tail of mice infected with transfected parasites. […] The transfected parasites are analyzed by fluorescence microscopy to check if transfected parasites express the reporter gene (here: GFP) using a fluorescence microscope, e.g. Axio Imager M2®, Zeiss®, Dublin, Calif.). The transfected parasites are reporter gene (e.g. here: GFP) positive as confirmed by fluorescence microscopy and shown in FIG. 1c, see C. […]

Which “RLU (Relative Light Unit) values” (B. microti [1]) does the source give for “PBANKA-DHFR: Strong constitutive DHFR promoter from Plasmodium berghei, SEQ ID NO:2, 2262 bp [reference compound]” here?
The value was “about 60 RLU”.

What about the “reporter gene expression (GFP/mCherry fluorescence)” value (B. microti [2]) of the same substance?
The value was “expression of GFP”.

Reference: patent US20210285004A1, “Bidirectional Constitutive Promoter and Uses, and Transfection Methods for B. Microti” (MJKS Research LLC, priority 2020, published 2021)
